The record followed here is patent US20040171563A1, “Novel use of tyrosine kinase inhibitor” (priority 2001, published 2004).

Each structure is given as a SMILES string.

For one experiment, the target named is T1, GTK (Mus musculus, UniProt Q922K9).
T1 construct: made in house
As to the kind of experiment: in vitro kinase assay for GTK activity. It counts as biochemical. Particulars: for Ki: inhibition of GTK activity in in vitro kinase assays; for inhibition of GTK (qualitative): screening of commercially available tyrosine kinase inhibitors. The protocol: (§1) Ki using AG957 was approximately 1 μM and that of SU4984 was about 10 μM. These inhibitors were added to Islets of Langerhans in in vitro cultures together with the cytokines IL-1β+IFN-γ, and apoptosis was determined by propidium iodide staining after 24 h. It was shown that AG957 and SU 4984 prevented cytokine-induced apoptosis by 60 and 75%, respectively, which further lends support to the view that GTK-inhibition prevents beta-cell destruction in type 1 diabetes. […] It is expected that also human FRK will be inhibited.
Assay for the assessment of GTK (FRK) kinase activity: The basis for screening for specific GTK kinase inhibitors is in vitro kinase assays, utilizing baculovirus produced GTK which is purified by immunoprecipitation using the GTK antibody. Both these reagents are available for the skilled person within this field. Phosphorylation of a synthetic peptide substrate will be studied (Annerén and Welsh, 2000) testing different concentrations of inhibitors, and IC50 values can then be determined for inhibition of GTK kinase activity. The specificity of drug-induced GTK-inhibition is then assessed by comparing the IC50 values with those of other tyrosine kinases.

Another experiment relates to Islets of Langerhans. Kind of experiment: cytokine-induced apoptosis in Islets of Langerhans, propidium iodide staining. Format: cell-based. To be noted: in vitro islet cultures with IL-1β+IFN-γ, propidium iodide staining after 24 h. The protocol:
as §1

T1 sequence (Q922K9 whole entry): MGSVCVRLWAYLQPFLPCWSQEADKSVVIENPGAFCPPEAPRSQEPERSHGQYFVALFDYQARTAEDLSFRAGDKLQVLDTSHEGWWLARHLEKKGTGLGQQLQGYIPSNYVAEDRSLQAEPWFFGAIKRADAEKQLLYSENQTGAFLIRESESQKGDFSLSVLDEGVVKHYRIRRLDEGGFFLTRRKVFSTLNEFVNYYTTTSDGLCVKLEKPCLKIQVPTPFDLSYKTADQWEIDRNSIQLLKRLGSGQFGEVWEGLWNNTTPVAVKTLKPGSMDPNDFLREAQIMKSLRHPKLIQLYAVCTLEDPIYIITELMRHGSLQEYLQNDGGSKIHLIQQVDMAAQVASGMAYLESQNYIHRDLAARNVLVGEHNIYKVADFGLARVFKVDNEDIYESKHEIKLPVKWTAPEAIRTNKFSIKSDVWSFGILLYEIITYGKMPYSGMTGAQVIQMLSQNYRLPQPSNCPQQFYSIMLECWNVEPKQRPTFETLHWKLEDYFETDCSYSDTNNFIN

Broadly, the Ki is a measure of affinity in units of concentration, obtained from inhibition or displacement. A high value points to weaker binding. Turning to `COC(=O)c1ccc(NCc2cc(O)ccc2O)cc1` [AG957], on GTK, the inhibitory constant (Ki) was about 1 µM and the “inhibition of GTK (qualitative)” value is “inhibited GTK activity in in vitro kinase assays with a reasonably high degree of specificity”. The “prevention of cytokine-induced apoptosis” value in the experiment on Islets of Langerhans is 60%.

For the molecule `N#C/C(=C\c1ccc(O)c(O)c1)C(=O)O` [AG 30], the “inhibition of GTK (qualitative)” value at GTK was “inhibit GTK with a fair degree of specificity”.

For the molecule `O=CN1CCN(c2ccc(/C=C3\C(=O)Nc4ccccc43)cc2)CC1` [SU4984], at GTK, the inhibitory constant (Ki) was about 10 µM and the “inhibition of GTK (qualitative)” value is “inhibited GTK activity in in vitro kinase assays with a reasonably high degree of specificity”. Also, the “prevention of cytokine-induced apoptosis” value with Islets of Langerhans was 75%.
